Experimental data: US11413321B2, “Pharmaceutical composition for use in increasing hair, modifying scalp or skin, healing a wound, promoting osteogenesis, or modifying hair” (priority 2017, dated 2022)

Tests used:
Assay type in all cases: in vivo, Wistar rat
[1] = tested on: full-thickness skin defect; experiment: Wound healing score, circular full-thickness skin defect on the dorsal part
Description: Formation of wounds: hair on the dorsal part of a 12-week-old Wistar rat was shaven with hair clippers, and a circular full-thickness skin defect with a diameter of 8 mm was produced on each of the left and right sides of the head and the left and right sides of the tail. The full-thickness skin defect was formed at four locations per body.
Administration of milk: 20 μL of milk was subcutaneously injected at each of four locations, namely upper, lower, left and right, in a place 4 mm away from the peripheral edge of the wound. As the milk, the commercially available bovine milk sterilized by heating (at 130 degrees for 2 seconds and 65 degrees for 30 minutes) as described in Example 1 was used.
Administration of fatty acid: As a fatty acid contained in the milk, sterile purified water (administration liquid) containing palmitic acid, stearic acid, myristic acid, linolenic acid, α-linoleic acid and oleic acid, respectively was administered. Here, the water was heated and administered for the saturated fatty acids, and the water was administered at room temperature for the unsaturated fatty acids. 20 μL of the administration liquid (containing 1 mg of the fatty acid) was subcutaneously administered at each of four locations, namely upper, lower, left and right, in a place 4 mm away from the peripheral edge of the wound.
Score 4: The reduction ratio of the area of the wound site is 70% or more.
Score 3: The reduction ratio of the area of the wound site is 50% or more and less than 70%.
Score 2: The reduction ratio of the area of the wound site is 20% or more and less than 50%.
Score 1: The reduction ratio of the area of the wound site is less than 20%.
The result was given as a ratio obtained by dividing the above score by the score for physiological saline.
Two tubes of 8 mL of commercially available milk sterilized at a low temperature (65 degrees for 30 minutes) were centrifuged by a centrifugal separator (2600 g×6 minutes), 2 mL of one fourth of the supernatant exclusive of a whip portion was collected from each tube, the two collected liquids were combined to obtain 4 mL of a liquid, and 4 mL of the resulting liquid was stirred, and used for experiments (hereinafter, the obtained sample is referred to as a “centrifuged sample”). The obtained centrifuged sample was administered to the wound site at a dosage of 20 μL per location in the same manner as described above. The results are shown in “Centrifuged Sample” in FIG. 6A.
Next, a wound healing-promoting effect of lactoferrin was examined. As lactoferrin, Nice rim essence 62971 (trade name) purchased from Lion Corporation was used and administered at one location in an amount of 20 μg or 60 μg in the same manner as described above. Specifically, the lactoferrin was ground, and then thoroughly dissolved in purified water. The lactoferrin concentration was adjusted so that an injection amount of 20 μL included the above administration amount. The result was given as a value obtained by dividing each of scores after seven days and after ten days by the score for the physiological saline administration group.

[2] = tested on: CD68-positive cells; experiment: Immunohistological staining of rat dorsal skin after injection of fatty acids (CD68); settings: 1 mg fatty acid in 20 μL per location; for number of CD68-positive cells (overall statement): a weak effect was observed overall
Description: (§1) Next, representative fatty acids contained in milk were administered to a 12-week-old Wistar rat at a plurality of locations on the dorsal skin as in Example 1(2) above, and a change in tissues by the administration was observed after the tissues were subjected to immunohistological staining. More specifically, physiological saline was administered in an amount of 20 μL per location, an administration liquid containing 1 mg of a fatty acid was administered in an amount of 20 μL per location, and a change in CD68-positive macrophage stained images and PPAR-γ-positive cell images by the administration was observed. Samples of the Wistar rat were obtained by sampling administration sites (four weeks after administration and eight weeks after administration). FIGS. 10A to 10G show the results. […] At saturated fatty acid injection sites, infiltration of a large number of CD68-positive cells was observed, and fibrillization of normal tissues was observed. Therefore, in FIGS. 10B to 10D, a change in fat tissues was examined at a location which was closest to the administration site and where normal tissues were maintained (non-fibrillization location).

[3] = tested on: PPAR-γ-positive cells; experiment: Immunohistological staining of rat dorsal skin after injection of fatty acids (PPAR-γ); settings: 1 mg fatty acid in 20 μL per location; for number of PPAR-γ-positive cells at the administration site: four weeks after administration, vs physiological saline, FIGS. 10B-10G; for increase in the number of PPAR-γ-positive cells at the administration site: eight weeks after administration
Description: as §1

[4] = tested on: CD68-positive cells; experiment: Immunohistological staining of rat dorsal skin after forced oral lactoferrin (CD68); settings: 300 mg oral once a day, eight weeks after administration, n=3; FIG. 9
Description: (§2) As a comparative test, lactoferrin was administered instead of milk, and whether the number of CD68-positive cells and the number of PPAR-γ-positive cells increased or not was examined. As lactoferrin, three tablets of Nice rim essence 62971 (manufactured by Lion Corporation) corresponding to 300 mg of active lactoferrin (amount ingested per day by a human) were orally administered to a 12-week-old Wistar rat (n=3). Administration was performed once a day with the tablets injected (forcedly ingested) into the stomach using a feeding needle. Eight weeks after administration, a paraffin-embedded section of the dorsal skin was prepared by a conventional method, and subjected to immunohistological staining.

[5] = tested on: PPAR-γ-positive cells; experiment: Immunohistological staining of rat dorsal skin after forced oral lactoferrin (PPAR-γ); settings: 300 mg oral once a day, eight weeks after administration, n=3; FIG. 9
Description: as §2

[6] = 20 μL administration liquid containing 1 mg of the fatty acid at each of four locations, FIG. 6C
[7] = eight weeks after administration
[8] = four weeks after administration, vs physiological saline

Molecule | wound healing-promoting effect (score divided by the score for physiological saline) [1, 6] | number of CD68-positive cells (overall statement) [2] | number of CD68-positive cells at the administration site [2, 7] | number of CD68-positive cells at the administration site [2, 8] | number of PPAR-γ-positive cells at the administration site [3] | increase in the number of PPAR-γ-positive cells at the administration site [3] | wound healing-promoting effect (score divided by the score for physiological saline) ([1]; 20 μg or 60 μg per location in 20 μL, after seven days and after ten days, FIG. 6B) | number of CD68-positive cells in dorsal skin [4] | number of PPAR-γ-positive cells in dorsal skin [5]
CCCCCCCC/C=C\CCCCCCCC(=O)O [oleic acid] | weak wound healing-promoting effect | did not greatly increase | increased | did not remarkably increase | did not remarkably increase | – | – | – | –
CCCCC/C=C\C/C=C\CCCCCCCC(=O)O [linoleic acid] | weak wound healing-promoting effect | did not greatly increase | increased | did not remarkably increase | did not remarkably increase | – | – | – | –
CCCCCCCCCCCCCCCCCC(=O)O [stearic acid] | high promoting effect | – | maintained | increased | increased | maintained | – | – | –
CC/C=C\C/C=C\C/C=C\CCCCCCCC(=O)O [α-linolenic acid] | weak wound healing-promoting effect | did not greatly increase | increased | did not remarkably increase | did not remarkably increase | – | – | – | –
lactoferrin | – | – | – | – | – | – | did not exhibit a significant promoting effect | did not increase | did not increase
CCCCCCCCCCCCCC(=O)O [myristic acid] | high promoting effect | – | maintained | increased | increased | maintained | – | – | –
